For this test, the target named is T1, human M4 muscarinic acetylcholine receptor (Homo sapiens, UniProt P08173).
T1 construct: expressed in transfected cells; host or cells: CHO-K1
T1 sequence (P08173 1-479): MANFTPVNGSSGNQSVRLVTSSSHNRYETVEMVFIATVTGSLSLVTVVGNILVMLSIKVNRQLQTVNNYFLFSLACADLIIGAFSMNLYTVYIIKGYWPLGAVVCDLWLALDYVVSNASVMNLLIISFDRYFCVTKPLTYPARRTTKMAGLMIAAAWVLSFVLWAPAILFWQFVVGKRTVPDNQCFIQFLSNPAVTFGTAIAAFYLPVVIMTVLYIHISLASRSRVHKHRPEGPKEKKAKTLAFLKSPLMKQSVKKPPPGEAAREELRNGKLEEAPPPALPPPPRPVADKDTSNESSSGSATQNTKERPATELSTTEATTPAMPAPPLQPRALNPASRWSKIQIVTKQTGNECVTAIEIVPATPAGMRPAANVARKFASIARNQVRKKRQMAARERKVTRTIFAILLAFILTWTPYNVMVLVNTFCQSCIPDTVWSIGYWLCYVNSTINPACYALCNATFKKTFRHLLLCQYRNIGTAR
The test can be described thus: human FLIPR-based M4 PAM assay (calcium mobilization, CHO-K1 cells with human M4 receptor and Gαqi5). It is filed as cell-based. To be noted: inflection point (IP) of dose response curve, acetylcholine added at 20% of maximum response, read-out: M4 FLIPPR Hu IP. Summed up:
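CHO-K1 cells stably expressing human M4 and Gαqi5, dye-loaded ~1 h at 37 °C, read on FLIPR Tetra. Test compound added at increasing concentrations 4 min before acetylcholine at an EC20 concentration, sometimes followed by an EC70 addition. Dose-response curves fit to a 4-parameter logistic; result is the curve inflection point.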
(In general: Calcium flux is commonly read through the fluorescence of an indicator in the cells.)
In the case of `CN1Cc2ccc(-c3nc(C#N)ccc3-c3cnc(CC4(C)CCCC4)o3)cc2C1=O` [Example 6, 6-(2-methyl-3-oxo-isoindolin-5-yl)-5-(2-((1-methyl-cyclopentyl)methyl)-oxazol-5-yl)picolino-nitrile], the EC50 turned out to be 14 nM.

Turning to `N#Cc1ccc(-c2cnc(CC3CCCC3)o2)c(N2CCn3ccnc3C2)n1` [Example 55, 5-(2-(cyclopentylmethyl)oxazol-5-yl)-6-(5,6-dihydroimidazo[1,2-a]pyrazin-7(8H)-yl)picolinonitrile], the EC50 came out at 8 nM.

Turning to `Cc1ccc(-c2cnc(Cc3ccccc3)o2)c(-c2ccc3cccnc3c2)n1` [Example 47, 2-benzyl-5-(6-methyl-2-(quinolin-7-yl)pyridin-3-yl)oxazole], the EC50 worked out at 24 nM.

Consider `CCC(C)(F)Cc1ncc(-c2ccc(C#N)nc2-c2ccn3cc(C)nc3c2)o1` (stereo not drawn) [Example 90, 5-(2-(2-fluoro-2-methylbutyl)oxazol-5-yl)-6-(2-methylimidazo [1,2-a]pyridin-7-yl)picolinonitrile], for which the EC50 came out at 31 nM.

With `CN1Cc2ccc(-c3nc(C#N)ccc3-c3cnc(CC4(O)CCCC4)o3)cc2C1=O` [Example 81, 5-(2-((1-hydroxycyclopentyl)methyl)oxazol-5-yl)-6-(2-methyl-3-oxoisoindolin-5-yl) picolinonitrile], the EC50 was 184 nM.

Take `CC(C)Cc1ncc(-c2ccc(C#N)nc2-c2ccc3cccnc3c2)o1` [Example 61, 5-(2-isobutyloxazol-5-yl)-6-(quinolin-7-yl)picolinonitrile]: the EC50 stood at 61 nM.

`COc1cc2ccc(-c3nc(C)ccc3-c3cnc(CC4CCCC4)o3)cc2nn1` [Example 2, 2-(cyclopentyl-methyl)-5-(2-(3-methoxycinnolin-7-yl)-6-methyl-pyridin-3-yl)-oxazole]: the EC50 is 13 nM.

`O=C1c2cc(-c3nc4c(cc3-c3cnc(CC5CCCC5)o3)CCC4)cnc2CN1CC1CC1` [Example 52, 3-(3-(2-(cyclopentylmethyl)oxazol-5-yl)-6,7-dihydro-5H-cyclopenta[b]pyridin-2-yl)-6-(cyclopropylmethyl)-6,7-dihydro-5H-pyrrolo[3,4-b] pyridin-5-one]: the EC50 stood at 178 nM.

As to `CC(C)(Cc1ncc(-c2ccc(C(F)F)nc2-c2ccc3cccnc3c2)o1)C(F)(F)F` [Example 24, 5-(6-(difluoro-methyl)-2-(quinolin-7-yl)pyridin-3-yl)-2-(3,3,3-trifluoro-2,2-dimethylpropyl)-oxazole], the EC50 worked out at 136 nM.

On to `CC1(Cc2ncc(-c3ccc(C#N)nc3-c3ccc4cccnc4c3)o2)CCCC1` [Example 7, 5-(2-((1-methyl-cyclopentyl)methyl)-oxazol-5-yl)-6-(quinolin-7-yl)-picolinonitrile], for which the EC50 worked out at 34 nM.

`COCc1cn2ccc(-c3nc(C#N)ccc3-c3cnc(CC(C)(C)C)o3)cc2n1` [Example 37, 6-(2-(methoxy-methyl)imidazo-[1,2-a]pyridin-7-yl)-5-(2-neopentyl-oxazol-5-yl)picolino-nitrile]: the EC50 stood at 78 nM.

Consider `CC1(Cc2ncc(-c3cc4c(nc3-c3cnc5c(c3)C(=O)NC5)C(F)CC4)o2)CCCC1` (single isomer, unassigned) [Example 45, 3-(7-fluoro-3-(2-((1-methylcyclopentyl)methyl)oxazol-5-yl)-6,7-dihydro-5H-cyclopenta[b]pyridin-2-yl)-6,7-dihydro-5H-pyrrolo[3,4-b]pyridin-5-one], for which the EC50 is 42 nM.

With `Cc1cn2ccc(-c3nc(C#N)ccc3-c3cnc(CC4CC4)o3)cc2n1` [Example 60, 5-(2-(cyclopropylmethyl)oxazol-5-yl)-6-(2-methylimidazo[1,2-a]pyridin-7-yl)picolinonitrile], the EC50 was 79 nM.

As for `Cc1nnc2cc(-c3nc(C#N)ccc3-c3cnc(CC(C)(C)C)o3)ccn12` [Example 35, 6-(3-methyl-[1,2,4]-triazolo[4,3-a]pyridin-7-yl)-5-(2-neopentyl-oxazol-5-yl)picolino-nitrile], the EC50 came to 130 nM.

Turning to `N#Cc1ccc(-c2cnc(CC(F)C3CC3)o2)c(-c2ccc3cccnc3c2)n1` (single isomer, unassigned) [Example 70, 5-(2-(2-cyclopropyl-2-fluoroethyl)oxazol-5-yl)-6-(quinolin-7-yl)picolinonitrile (single compound)], the EC50 was determined as 60 nM.

On to `CC(C)(C)Cc1ncc(-c2ccc(C#N)nc2-c2ccc3cccnc3c2)o1` [Example 11, 5-(2-neopentyl-oxazol-5-yl)-6-(quinolin-7-yl)-picolinonitrile], for which the EC50 is 69 nM.

Take `Cn1cnc2cc(-c3ncccc3-c3cnc(CC(C)(C)C(F)(F)F)o3)ccc21` [Example 115, 5-(2-(1-methyl-1H-benzo[d]imidazol-5-yl)pyridin-3-yl)-2-(3,3,3-trifluoro-2,2-dimethylpropyl) oxazole]: the EC50 is 128 nM.

In the case of `N#Cc1ccc(-c2cnc(CC(F)C3CC3)o2)c(-c2ccc3cccnc3c2)n1` (single isomer, unassigned) [Example 71, 5-(2-(2-cyclopropyl-2-fluoroethyl)oxazol-5-yl)-6-(quinolin-7-yl)picolinonitrile (single compound)], the EC50 amounted to 54 nM.

As to `COc1cc2ccc(-c3nc(C)ccc3-c3cnc(C(F)(F)C4CCCC4)o3)cc2nn1` [Example 102, 2-(cyclopentyldifluoromethyl)-5-(2-(3-methoxycinnolin-7-yl)-6-methylpyridin-3-yl)oxazole], the EC50 amounted to 51 nM.

For the compound `CN1Cc2ccc(-c3ncccc3-c3cnc(CC4CCCC4)o3)cc2C1=O` [Example 3, 6-(3-(2-(cyclo-pentylmethyl)-oxazol-5-yl)-pyridin-2-yl)-2-methylisoindolin-1-one], the EC50 stood at 42 nM.

On to `Clc1ccc(-c2cnc(CC3CCCC3)o2)c(N2CCn3ccnc3C2)n1` [Example 57, 5-(6-chloro-2-(5,6-dihydroimidazo[1,2-a]pyrazin-7(8H)-yl)pyridin-3-yl)-2-(cyclopentylmethyl) oxazole], for which the EC50 came out at 117 nM.

Turning to `CC(C)(Cc1ncc(-c2ccc(C#N)nc2-c2ccc3cccnc3c2)o1)C(F)(F)F` [Example 23, 6-(quinolin-7-yl)-5-(2-(3,3,3-trifluoro-2,2-dimethylpropyl)-oxazol-5-yl)picolino-nitrile], the EC50 was 104 nM.

With `Cc1cn2ccc(-c3nc(C#N)ccc3-c3cnc(CC4CC(F)(F)C4)o3)cc2n1` [Example 98, 5-(2-((3,3-difluorocyclobutyl)methyl)oxazol-5-yl)-6-(2-methylimidazo[1,2-a]pyridin-7-yl)picolinonitrile], the EC50 amounted to 36 nM.

Regarding `CC(C)(C)Cc1ncc(-c2ccc3cncn3c2-c2ccn3ccnc3c2)o1` [Example 36, 5-(5-(imidazo[1,2-a]-pyridin-7-yl)imidazo-[1,5-a]pyridin-6-yl)-2-neopentyloxazole], the EC50 turned out to be 75 nM.

On to `FC1(Cc2ncc(-c3cccnc3-c3ccn4ccnc4c3)o2)CCCC1` [Example 78, 2-((1-fluorocyclopentyl)methyl)-5-(2-(imidazo[1,2-a]pyridin-7-yl)pyridin-3-yl) oxazole], for which the EC50 is 105 nM.

With `CN1Cc2ncc(-c3nc(C(F)F)ccc3-c3cnc(CC(C)(C)C)o3)cc2C1=O` [Example 20, 3-(6-(difluoro-methyl)-3-(2-neopentyloxazol-5-yl)pyridin-2-yl)-6-methyl-6,7-dihydro-5H-pyrrolo[3,4-b]-pyridin-5-one], the EC50 was determined as 163 nM.

With `CC(C)(C)CCc1ncc(-c2ccc(C#N)nc2-c2ccn3ccnc3c2)o1` [Example 66, 5-(2-(3,3-dimethylbutyl)oxazol-5-yl)-6-(imidazo[1,2-a]pyridin-7-yl) picolinonitrile], the EC50 worked out at 42 nM.

For the compound `CC(C)(F)CCc1ncc(-c2ccc(C#N)nc2-c2ccn3ccnc3c2)o1` [Example 104, 5-(2-(3-fluoro-3-methylbutyl)oxazol-5-yl)-6-(imidazo[1,2-a]pyridin-7-yl) picolinonitrile], the EC50 was found to be 147 nM.

As for `Cc1nc2cc(-c3nc(C#N)ccc3-c3cnc(CCC(C)(C)F)o3)ccc2n1C` [Example 117, 6-(1,2-dimethyl-1H-benzo[d]imidazol-5-yl)-5-(2-(3-fluoro-3-methylbutyl)oxazol-5-yl) picolinonitrile], the EC50 came to 60 nM.

Regarding `N#Cc1ccc(-c2cnc(C[C@@H]3CC[C@H](F)C3)o2)c(-c2ccc3cccnc3c2)n1` [Example 101, 5-(2-(((1S,3S)-3-fluorocyclopentyl)methyl)oxazol-5-yl)-6-(quinolin-7-yl)picolinonitrile], the EC50 amounted to 25 nM.

As for `Cc1nc2cc(-c3nc(C#N)ccc3-c3cnc(CC(C)(C)C(F)(F)F)o3)ccc2n1C` [Example 111, 6-(1,2-dimethyl-1H-benzo[d]imidazol-5-yl)-5-(2-(3,3,3-trifluoro-2,2-dimethylpropyl)oxazol-5-yl)picolinonitrile], the EC50 was 114 nM.

Regarding `CC(C)CCc1ncc(-c2ccc(C#N)nc2-c2ccc3cccnc3c2)o1` [Example 31, 5-(2-isopentyloxazol-5-yl)-6-(quinolin-7-yl)picolinonitrile], the EC50 amounted to 43 nM.

On to `Cc1ccc(-c2cnc(Cc3ccc(F)cc3)o2)c(N2CCn3ccnc3C2)n1` [Example 59, 5-(2-(5,6-dihydroimidazo[1,2-a]pyrazin-7(8H)-yl)-6-methylpyridin-3-yl)-2-(4-fluorobenzyl)oxazole], for which the EC50 was found to be 459 nM.

Source of the values: patent US10981902B2 (Merck Sharp & Dohme Corp., priority 2017, dated 2021).
